{"source": "patent US20230083525A1", "about": "“NOVEL COMPOSITION FOR REDUCING STRESS DISORDERS” (SOCIETE DES PRODUITS NESTLE S.A., priority 2019, published 2023)", "origin": "cited, not measured here", "conditions": "value used to convert plasma AUC to production in the colon"}
{"smiles": "CCCC(=O)O", "note": "[butyrate]", "values": [{"measurement": "systemic availability", "value": 2, "unit": "%"}]}
{"smiles": "CC(=O)O", "note": "[acetate]", "values": [{"measurement": "systemic availability", "value": 36, "unit": "%"}]}
